{"source": "patent US8524697B2", "about": "“C20-C21 substituted glucocorticoid receptor agonists” (Merck Sharp & Dohme Corp., priority 2007, dated 2013)", "origin": "cited, not measured here", "target": "SYK kinase (Homo sapiens, UniProt P43405)", "settings": "symptoms associated with chronic nasal congestion"}
{"smiles": "Oc1cccc(Nc2ncc(F)c(Nc3cccc(O)c3)n2)c1", "note": "[Example R112]", "values": [{"measurement": "absolute difference over placebo", "result": 9, "unit": "%"}, {"measurement": "improvement from baseline measurements (prior to drug initiation)", "result": "up to 38%"}, {"measurement": "relative improvement over placebo", "result": "greater than 20%"}]}
